Patent US20050250677A1, “Glycopeptide antibiotic derivatives” (priority 2002, published 2005)
Like-named read-outs stand apart in the source and are kept apart here.

What was measured:
HIV [1] = experiment: Time of addition experiment (HIV); format: cell-based
HIV-1 (IIIB) [2] = experiment: Inhibition of HIV-1 (IIIB)-induced cytopathicity (giant cell formation) in CEM cells; format: cell-based
Procedure: (§1) A variety of glycopeptide antibiotic derivatives of vancomycin, eremomycin and teicoplanin including their aglycon derivatives were evaluated for their inhibitory activity against HIV-1 (IIIB) and HIV-2(ROD) in CEM cell cultures.

HIV-2(ROD) = experiment: Inhibition of HIV-2 (ROD)-induced cytopathicity (giant cell formation) in CEM cells; format: cell-based; conditions: read-out: EC50 HIV-2 (concentration required to inhibit HIV-induced giant cell formation by 50%); HIV-2, CEM cell cultures
Procedure: as §1

HIV [3] = experiment: Anti-HIV activity in cell culture, HIV type not distinguished; format: cell-based; conditions: read-out: EC50 against HIV
Procedure: as §1

murine leukemia L1210 = experiment: Cytostatic activity assay, L1210 cells; format: cell-based; conditions: read-out: IC50 L1210 (compound concentration required to inhibit tumor cell proliferation by 50%)
[4] = tested on: human lymphocyte Molt4/clone 8; experiment: Cytostatic activity assay, Molt4/clone 8 cells; format: cell-based; conditions: read-out: IC50 Molt4/C8 (compound concentration required to inhibit tumor cell proliferation by 50%)
human lymphocyte CEM = experiment: Cytostatic activity assay, CEM cells; format: cell-based
HEL cells [5] = tested on: HEL cells
HEL cells [6] = conditions: read-out: CC50 (HEL), HEL cells
CMV = experiment: Anti-CMV assay: virus-induced cytopathicity in HEL cell cultures
FCV = experiment: Feline corona virus assay in Feline Crandel kidney cells (MTS); format: cell-based; conditions: read-out: EC50 FCV
Procedure: Feline Crandel kidney cells were seeded in 96-well microtiter plates at 24,000 cells/well. Then, 24 hrs later, an appropriate inoculum of FCV is added together with 5-fold dilutions of the test compounds. After 4 days, a MTS/PMS solution was added to each well. Following a 90 min incubation period at 37° C., the optical density of the wells was read at 498 nm in a microplate reader.

[7] = tested on: SARS virus (strain Frankfurt-1); experiment: microbe, parasite or virus in culture; format: cell-based, human corona (SARS) virus; conditions: read-out: EC50 SARS virus
in vitro [8] = conditions: cat
in vitro [9] = conditions: monkey (simian)
HIV-1 (IIIB) [10] = experiment: Inhibition of HIV-1 (IIIB)-induced cytopathicity in C8166 cells; format: cell-based
HIV-1(HE) = experiment: Inhibition of HIV-1 (HE)-induced cytopathicity in MOLT4/C8 cells; format: cell-based
HIV-1 (HE) = experiment: Inhibition of HIV-1 (HE)-induced cytopathicity in CEM/0 cells; format: cell-based
HIV-2 (EHO) = conditions: read-out: EC50 CEM/0 HIV-2 (EHO); CEM/0 cells
Procedure: (§2) Inhibition of HIV-1 (IIIB, HE, HN) and HIV-2(ROD, EHO, RF)-induced cytopathicity in CEM or C8166 or Molt4/C8 cells was measured in microtiter 96-well plates containing ˜3×10^5 CEM cells/ml, infected with 100 CCID50 of HIV per ml and containing appropriate dilutions of the test compounds. After 4 to 5 days of incubation at 37° C. in a CO2-controlled humidified atmosphere, CEM, C8166 or Molt4/C8 giant (syncytium) cell formation was examined microscopically.

HIV-2 (RF) = conditions: read-out: EC50 CEM/0 HIV-2 (RF); CEM/0 cells
Procedure: as §2

HIV-1 (MN) = experiment: Inhibition of HIV-1 (MN)-induced cytopathicity in CEM/0 cells; format: cell-based
[11] = tested on: mutant HIV-1 strain Leu-100-Ile; experiment: Anti-HIV-1 activity against mutant HIV-1 strain Leu-100-Ile in CEM cultures; format: cell-based
[12] = tested on: mutant HIV-1 strain Lys-103-Asn; experiment: Anti-HIV-1 activity against mutant HIV-1 strain Lys-103-Asn in CEM cultures; format: cell-based
[13] = tested on: mutant HIV-1 strain Tyr-181-Cys; experiment: Anti-HIV-1 activity against mutant HIV-1 strain Tyr-181-Cys in CEM cultures; format: cell-based
[14] = tested on: mutant HIV-1 strain Tyr-188-His; experiment: Anti-HIV-1 activity against mutant HIV-1 strain Tyr-188-His in CEM cultures; format: cell-based
Procedure: as §2

VZV (wild-type strains) = experiment: Anti-VZV assay (wild-type strains): virus-induced cytopathicity in HEL cell cultures; format: cell-based, varicella-zoster virus; conditions: HEL cell cultures
FCK cells = conditions: read-out: CC50 FCK; FCK cells
Vero cells = conditions: read-out: CC50 Vero
HIV [15] = experiment: Selection of resistant HIV strains in cell culture; format: cell-based; conditions: ≧9 weeks of attempts in cell culture
[16] = read-out: EC50 HIV-1 (concentration required to inhibit HIV-induced giant cell formation by 50%), HIV-1, CEM cell cultures
[17] = read-out: IC50 CEM (compound concentration required to inhibit tumor cell proliferation by 50%)
[18] = read-out: EC50 CMV AD-169, CMV strain AD-169, HEL cell cultures
[19] = CEM cultures, wild type in mutant panel, read-out: EC50 HIV-1 IIIB
[20] = CEM/0 cells, read-out: EC50 CEM/0 HIV-1 (IIIB)

Question: Which “time post infection up to which addition can be delayed without loss of antiviral activity” value (HIV [1]) does the source give for `Cc1cn([C@H]2C[C@H](N=[N+]=[N-])[C@@H](CO)O2)c(=O)[nH]c1=O` [AZT, zidovudine] here?
Answer: at least 3 h

Question: Which results are given for `N[C@H]1C(=O)N[C@@H]2Cc3ccc(c(Cl)c3)Oc3cc4cc(c3O)Oc3ccc(cc3Cl)[C@@H](O)[C@@H]3NC(=O)[C@H](NC(=O)[C@@H]4NC(=O)[C@@H](NC2=O)c2cc(O)cc(c2)Oc2cc1ccc2O)c1ccc(O)c(c1)-c1c(O)cc(O)cc1[C@@H](C(=O)O)NC3=O` [Compound 112, Teicoplanin aglycon]?
Answer: EC50 (HIV-1 (IIIB) [2]; [16]): 17 ± 3.5 µM; EC50 (HIV-2(ROD)): 20 µM; EC50 (HIV [3]): 17 to 20 µM; IC50 (murine leukemia L1210): > 500 µM; IC50 [4]: > 500 µM; IC50 (human lymphocyte CEM; read-out: IC50 (toxicity in cell culture)): > 500 µM; IC50 (human lymphocyte CEM; [17]): > 500 µM; MTC (HEL) (HEL cells [5]; anti-CMV table): ≧20-200 μM; CC50 (HEL cells [6]; anti-CMV table): > 200 µM; EC50 (CMV; [18]): 32 µM

Question: With `COC(=O)C1NC(=O)C2NC(=O)C(NC(=O)C(NC(=O)OC(C)(C)C)c3cc(Oc4ccc(CC(NC(=O)OCc5ccccc5)C(=O)O)cc4Cl)c(O)c(c3)Oc3ccc(cc3Cl)C2O)c2ccc(O)c(c2)-c2c(O)cc(O)cc21` (stereo not shown) [Compound 170] as the compound, how does the EC50 (FCV; Felis catus) read?
Answer: 23 µM

Question: And the EC50 ([7]; Severe acute respiratory syndrome coronavirus, Vero)?
Answer: 32 µM

Question: What about the CC50 (in vitro [8]) of the same compound?
Answer: > 100 µM

Question: What about the CC50 (in vitro [9]) of the same compound?
Answer: > 100 µM

Question: For `CCCCc1ccc(CN2CCN(Cc3c(O)cc4c(c3O)-c3cc(ccc3O)C3NC(=O)C5NC(=O)C6NC(=O)C(Cc7ccc(c(Cl)c7)Oc7cc5cc(c7O)Oc5ccc(cc5Cl)C(O)C(NC3=O)C(=O)NC4C(=O)NC)NC(=O)C(N)c3ccc(O)c(c3)Oc3cc(O)cc6c3)CC2)cc1` (stereo not shown) [Compound 31], which EC50 (HIV-1 (IIIB) [2]; [19]) is on record?
Answer: 2.8 ± 0.4 µM

Question: What about the EC50 (HIV-1 (IIIB) [2]; [20]) of the same compound?
Answer: 2.8 ± 0.4 µM

Question: And the EC50 (HIV-1 (IIIB) [2]; [16])?
Answer: 1.7 ± 0.42 µM

Question: And the EC50 (HIV-2(ROD))?
Answer: 3 ± 1.4 µM

Question: And the EC50 (HIV-1 (IIIB) [10])?
Answer: 6.6 ± 3.06 µM

Question: And the EC50 (HIV-1(HE))?
Answer: 3.7 ± 0.35 µM

Question: And the EC50 (HIV-1 (HE))?
Answer: 9.5 ± 3.5 µM

Question: And the EC50 (HIV-2 (EHO))?
Answer: 6.8 ± 0.35 µM

Question: What about the EC50 (HIV-2 (RF)) of the same compound?
Answer: 3.7 ± 1.77 µM

Question: What about the EC50 (HIV-1 (MN)) of the same compound?
Answer: 6.5 ± 0.7 µM

Question: And the EC50 [11]?
Answer: 5.3 ± 2.5 µM

Question: What about the EC50 [12] of the same compound?
Answer: 6 ± 1.4 µM

Question: And the EC50 [13]?
Answer: 8.5 ± 2.1 µM

Question: What about the EC50 [14] of the same compound?
Answer: 6 ± 1.4 µM

Question: And the IC50 (murine leukemia L1210)?
Answer: 61 ± 10 µM

Question: And the IC50 [4]?
Answer: > 500 µM

Question: And the IC50 (human lymphocyte CEM; [17])?
Answer: > 500 µM

Question: And the EC50 (VZV (wild-type strains); VZV strain OKA, read-out: EC50 VZV (OKA))?
Answer: 0.75 µM

Question: What about the EC50 (VZV (wild-type strains); VZV strain YS, read-out: EC50 VZV (YS)) of the same compound?
Answer: 0.85 µM

Question: And the EC50 (FCV; FCV in FCK cells)?
Answer: > 100 µM

Question: And the EC50 ([7]; SARS virus in Vero cells)?
Answer: 24 µM

Question: What about the “MTC (HEL)” value (HEL cells [5]; anti-CMV table) of the same compound?
Answer: 20 to 50 µM

Question: And the “MTC (HEL)” value (HEL cells [5]; anti-VZV table)?
Answer: 20 to 50 µM

Question: And the CC50 (HEL cells [6]; anti-CMV table)?
Answer: > 200 µM

Question: What about the CC50 (HEL cells [6]; anti-VZV table) of the same compound?
Answer: > 200 µM

Question: And the CC50 (FCK cells)?
Answer: ≥ 20 µM

Question: What about the CC50 (Vero cells) of the same compound?
Answer: > 100 µM

Question: And the “anti-CMV activity” value (CMV)?
Answer: anti-CMV activity

Question: And the EC50 (CMV; [18])?
Answer: ≥ 20 µM

Question: And the EC50 (CMV; read-out: EC50 CMV Davis, CMV strain Davis, HEL cell cultures)?
Answer: 10 µM

Question: With `CN(C)CCCNC(=O)C1NC(=O)C2NC(=O)C(NC(=O)C3NC(=O)C4NC(=O)C(Cc5ccc(c(Cl)c5)Oc5cc3cc(c5O)Oc3ccc(cc3Cl)C2O)NC(=O)C(N)c2ccc(O)c(c2)Oc2cc(O)cc4c2)c2ccc(O)c(c2)-c2c1cc(O)c(CNC1C3CC4CC(C3)CC1C4)c2O` (stereo not shown) [Compound 19] as the compound, how does the EC50 (HIV-1 (IIIB) [2]; [19]) read?
Answer: 6 ± 1.4 µM

Question: And the EC50 (HIV-1 (IIIB) [2]; [20])?
Answer: 6 ± 1.4 µM

Question: What about the EC50 (HIV-1 (IIIB) [2]; [16]) of the same compound?
Answer: 2.5 ± 0.7 µM

Question: What about the EC50 (HIV-2(ROD)) of the same compound?
Answer: 8 ± 2.8 µM

Question: And the EC50 (HIV-1 (IIIB) [10])?
Answer: 9.5 ± 3.5 µM

Question: What about the EC50 (HIV-1(HE)) of the same compound?
Answer: 9 ± 1.4 µM

Question: What about the EC50 (HIV-1 (HE)) of the same compound?
Answer: 12 µM

Question: What about the EC50 (HIV-2 (EHO)) of the same compound?
Answer: 15 µM

Question: What about the EC50 (HIV-2 (RF)) of the same compound?
Answer: 9.5 ± 3.5 µM

Question: And the EC50 (HIV-1 (MN))?
Answer: 13 ± 2.1 µM

Question: And the EC50 [11]?
Answer: 11.5 ± 2.1 µM

Question: And the EC50 [12]?
Answer: 8.5 ± 2.1 µM

Question: What about the EC50 [13] of the same compound?
Answer: 7.5 ± 3.5 µM

Question: And the EC50 [14]?
Answer: 11 ± 1.4 µM

Question: What about the IC50 (murine leukemia L1210) of the same compound?
Answer: > 500 µM

Question: And the IC50 [4]?
Answer: > 500 µM

Question: What about the IC50 (human lymphocyte CEM; [17]) of the same compound?
Answer: > 500 µM

Question: And the “selection of resistant virus strains” value (HIV [15])?
Answer: failed

Question: What about the EC50 (FCV; FCV in FCK cells) of the same compound?
Answer: 18 µM

Question: And the EC50 ([7]; SARS virus in Vero cells)?
Answer: 23 µM

Question: What about the CC50 (FCK cells) of the same compound?
Answer: > 50 µM

Question: And the CC50 (Vero cells)?
Answer: > 100 µM
